Type in all cases: biochemical
The target in one experiment is T1, rat nNOS (Rattus norvegicus, UniProt P29476).
T1 construct: made in house; host or cells: E. coli (plasmid pCWnNOS)
Kind of experiment: NOS enzyme inhibitory assay (hemoglobin capture), nNOS. As to conditions: Table 1b; for Selectivity n/e: ratio of Ki values eNOS/nNOS; for Selectivity n/i: ratio of Ki values iNOS/nNOS; for Ki: read-out: Ki nNOS. The gist of the method:
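Recombinant rat nNOS expressed in E. coli and purified by calmodulin-Sepharose and 2′,5′-ADP-Sepharose chromatography. NO production followed by hemoglobin capture; inhibition expressed as Ki, selectivity as ratio of Ki values.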

The target of another experiment is T2, murine iNOS (Mus musculus, UniProt P29477).
T2 construct: made in house; host or cells: E. coli (plasmid pCWiNOS)
Kind of experiment: NOS enzyme inhibitory assay (hemoglobin capture), iNOS. As to conditions: Table 1b; read-out: Ki iNOS. An outline of the steps: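 Recombinant murine iNOS, overexpressed in E. coli from plasmid pCWiNOS (induced with 1 mM IPTG) and purified on a 2′,5′-ADP-Sepharose 4B column with elution by 10 mM 2′(3′)-AMP, 10 μM BH4 and 0.3 M NaCl, was used to test inhibitors. Nitric oxide production was followed with the hemoglobin capture assay, and IC50 values were determined.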

Another experiment deals with T3, bovine eNOS (Bos taurus, UniProt P29473).
T3 construct: made in house; host or cells: E. coli (plasmid Bov-eNOSpCW)
The experiment in a line: NOS enzyme inhibitory assay (hemoglobin capture), eNOS. As to conditions: Table 1b; read-out: Ki eNOS. The protocol:
All of the NOS isoforms used were recombinant enzymes overexpressed in E. coli from different sources. Nitric oxide formation from NOS was monitored by the hemoglobin capture assay as described in the literature.
Expression of bovine eNOS: An overnight culture of Bov-eNOSpCW was used to inoculate 0.5 liter (in a 2.8-liter Fernbach flask) of modified TB (20 g of yeast extract, 10 g of bacto-tryptone, 2.65 g of KH2PO4, 4.33 g of Na2HPO4 and 4 ml of glycerol per liter) containing ampicillin ([…]) and chloramphenicol ([…]). The cultures were grown to an OD600 of z0.8 at 22° C. (200 rpm) and induced with 0.5 mM IPTG. One hour before IPTG induction, d-aminolevulinic acid (0.5 mM final) was added and, at the time of IPTG induction, riboflavin ([…]) and ATP (1 mM final) were also added. After induction, the flasks were kept in the dark at 22° C. (200 rpm). The cells were harvested 48 h after induction, and the cell pellet was frozen at −80° C. until purification was carried out.
Purification of bovine eNOS. The purification was typically carried out with eNOS from 2 liters of E. coli culture. The eNOS protein was purified using a modification of the published protocol for nNOS (14). The cells were resuspended in buffer C [50 mM Tris-Cl, pH 7.8, 1 mM EDTA, 1 mM DTT, 10% glycerol (v/v), 150 mM NaCl, 0.1 mM phenylmethylsulfonyl fluoride, […]], lysed by pulsed sonication and then centrifuged to sediment the cell debris. The supernatant was applied to a 2′,5′-ADP Sepharose 4B column equilibrated in buffer D [50 mM Tris-Cl, pH 7.8, 0.1 mM EDTA, 0.1 mM dithiothreitol, 150 mM NaCl, 10% glycerol (v/v)]. The column was washed with 20 column volumes of buffer B and again with 20 column volumes of buffer B containing 600 mM NaCl. Finally, protein was eluted with buffer B containing 600 mM NaCl and 5 mM 2′-AMP. The fractions were screened for absorption in the Soret region (A400) and hemoprotein-containing fractions were pooled and concentrated (Centriprep 50, Amicon). Repeated dilution/concentration [50 mM Tris-Cl, pH 7.8, 0.1 mM EDTA, 0.1 mM dithiothreitol, 10% glycerol (vol/vol)] was used to reach a final concentration of 150 mM NaCl and commensurately reduce the 2′-AMP content. […] The purified eNOS is stored in the presence of 1 mM L-arginine.
eNOS washing: eNOS contains a significant amount of L-arginine, which will interfere with the enzyme assay. The L-arginine can be removed by several dilution and concentration steps using an Amico concentrator. The dilution buffer is 10 ml Tris-HCl 50 mM containing 0.1 mM EDTA, 400 mM NaCl, 10% glycerol and 1 mM beta-mercaptoethanol. The above dilution and concentration operation was repeated three times to give purified eNOS.
Nitric oxide formation from NOS was monitored by the hemoglobin capture assay as described previously. (Hevel, J. M.; Marletta, M. A. Nitric Oxide Synthase Assays. Methods Enzymol. 1994, […], 250-258).
The selectivity of an inhibitor is defined as the ratio of the respective Ki values.

The term Ki denotes the dissociation constant of the complex between target and ligand, obtained from inhibition or displacement. Consider `Cc1cc(N)nc(C[C@H]2CNC[C@H]2NCCNCc2ccc(F)cc2)c1.Cl.Cl.Cl.Cl` (racemic) [Compound P-51], for which the Selectivity n/e at rat nNOS worked out at 904.5. Moreover, the Selectivity n/i at rat nNOS is reported as 55.4. Besides, the Ki on rat nNOS was 0.144 µM; on murine iNOS, 7.97 µM; at bovine eNOS, 130 µM.
In the case of `Cc1cc(N)nc(CC2CNCC2NCCNCc2cccc(C(F)(F)F)c2)c1.Cl.Cl.Cl.Cl` (racemic) [Compound P-52], at rat nNOS, the Selectivity n/e was determined as 563.6. In addition, the Selectivity n/i on rat nNOS is on record as 65.8. Moreover, the Ki stood at 0.206 µM on rat nNOS, 13.6 µM on murine iNOS and 116 µM on bovine eNOS.
On the same counts, the results for `Cc1cccc(CNCCN[C@@H]2CNC[C@@H]2Cc2cc(C)cc(N)n2)c1.Cl.Cl.Cl.Cl` (racemic) [Compound P-53] are 450.5, 56.7, 0.159 µM, 9.01 µM and 71.6 µM.
In the same order, the values of `Cc1cc(N)nc(C[C@H]2CNC[C@@H]2NCCNCc2ccc(F)cc2)c1.Cl.Cl.Cl.Cl` (racemic) [Compound P-57] are 90.1, 31.3, 0.87 µM, 27.4 µM and 78.8 µM.
On the same counts, the results for `Cc1cc(N)nc(CC2CNCC2NCCNCc2cccc(C(F)(F)F)c2)c1.Cl.Cl.Cl.Cl` (racemic) [Compound P-58] are 146.1, 79, 0.74 µM, 58.7 µM and 109 µM.
As to `Cc1cccc(CNCCN[C@H]2CNC[C@@H]2Cc2cc(C)cc(N)n2)c1.Cl.Cl.Cl.Cl` (racemic) [Compound P-59], at rat nNOS, the Selectivity n/e turned out to be 305.5, the Selectivity n/i was determined as 127.1 and the Ki stood at 0.66 µM. Also, the Ki at murine iNOS was found to be 83.9 µM. Besides, the Ki at bovine eNOS stood at 202 µM.
On the same counts, the results for `Cc1cc(N)nc(CC2CNCC2NCCNCc2ccc(Cl)c(Cl)c2)c1.Cl.Cl.Cl.Cl` (racemic) [Compound P-60] are 260, 22.6, 0.157 µM, 3.56 µM and 40.8 µM.
For the molecule `Cc1cc(N)nc(C[C@H]2CNC[C@H]2NCCNCc2ccc(Cl)cc2Cl)c1.Cl.Cl.Cl.Cl` (racemic) [Compound P-61], at rat nNOS, the Selectivity n/e was 272, the Selectivity n/i came out at 70 and the Ki was found to be 0.11 µM. Also, the Ki at murine iNOS was found to be 7.7 µM. Also, the Ki at bovine eNOS is 29.9 µM.
In the same order, the values of `Cc1cc(N)nc(C[C@H]2CNC[C@H]2NC[C@H](C)NCc2ccc(Cl)cc2)c1.Cl.Cl.Cl.Cl` (racemic) [Compound P-63] are 294.4, 90, 0.136 µM, 12.2 µM and 40 µM.
Take `Cc1cc(N)nc(CC2CNCC2NCCNCc2ccc(Cl)c(Cl)c2)c1.Cl.Cl.Cl.Cl` (racemic) [Compound P-65]: on rat nNOS, the Selectivity n/e was found to be 153, the Selectivity n/i was determined as 57.4 and the Ki was 0.414 µM. Further, the Ki on murine iNOS was found to be 23.8 µM. The Ki on bovine eNOS is 63.2 µM.
On to `Cc1cc(N)nc(C[C@H]2CNC[C@@H]2NCCNCc2ccc(Cl)cc2Cl)c1.Cl.Cl.Cl.Cl` (racemic) [Compound P-66], for which, on rat nNOS, the Selectivity n/e was determined as 158, the Selectivity n/i was determined as 91.6 and the Ki turned out to be 0.483 µM. On murine iNOS, the Ki was 44.2 µM. The Ki at bovine eNOS came out at 76.1 µM.
In the same order, the values of `Cc1cc(N)nc(CC2CNCC2NCC(C)NCc2ccc(Cl)cc2)c1.Cl.Cl.Cl.Cl` (racemic) [Compound P-68] are 28, 34.7, 0.589 µM, 20.5 µM and 16.5 µM.
On the same counts, the results for `Cc1cc(N)nc(CC2CNCC2NCCNCCc2ccc(F)cc2)c1.Cl.Cl.Cl.Cl` (racemic) [Compound P-70] are 656.2, 170.3, 0.027 µM, 4.6 µM and 17.7 µM.
On to `Cc1cc(N)nc(C[C@H]2CNC[C@@H]2NCCNCCc2ccc(F)cc2)c1.Cl.Cl.Cl.Cl` (racemic) [Compound P-72], for which, on rat nNOS, the Selectivity n/e was determined as 370.5, the Selectivity n/i was 189.9 and the Ki is 0.119 µM. Moreover, the Ki at murine iNOS turned out to be 22.6 µM. Also, the Ki at bovine eNOS turned out to be 44.1 µM.
In the same order, the values of `Cc1cc(N)nc(CC2CNCC2N(C)CCN(C)CCc2cccc(F)c2)c1.Cl.Cl.Cl.Cl` (racemic) [Compound P-74] are 40.27, 46.7, 1.21 µM, 56.6 µM and 48.9 µM.
On the same counts, the results for `Cc1cc(N)nc(C[C@H]2CNC[C@H]2N(C)CCNCCc2cccc(F)c2)c1.Cl.Cl.Cl.Cl` (racemic) [Compound P-75] are 283.5, 117.3, 0.326 µM, 38.2 µM and 92.4 µM.
Take `Cc1cc(N)nc(C[C@H]2CNC[C@H]2NC(=O)CNCCc2cccc(F)c2)c1.Cl.Cl.Cl` (racemic) [Compound P-77, (±)-N-{cis-4-[(6-amino-4-methylpyridin-2-yl)methyl]pyrrolidin-3-yl}-2-(3-fluorophenethylamino)acetamide trihydrochloride]: on rat nNOS, the Selectivity n/e is 500. Also, the Selectivity n/i at rat nNOS came out at 26.4. In addition, the Ki was found to be 0.053 µM at rat nNOS, 1.4 µM at murine iNOS and 26 µM on bovine eNOS.
In the same order, the values of `Cc1cc(N)nc(C[C@@H]2CNC[C@@H]2NCCOCCc2cccc(F)c2)c1` (racemic) [Compound P-78, cis-6-{{(±)-4-[2-(3-fluorophenethoxy)ethylamino]pyrrolidin-3-yl}methyl}-4-methylpyridin-2-amine] are 50, 3.5, 0.4 µM, 1.4 µM and 20 µM.
On the same counts, the results for `Cc1cc(N)nc(C[C@H]2CNC[C@H]2OCCNC(=O)Cc2cccc(F)c2)c1.Cl.Cl` (racemic) [Compound P-80, (±)-N-{2-{cis-4-[(6-amino-4-methylpyridin-2-yl)methyl]pyrrolidin-3-yloxy}ethyl}-2-(3-fluorophenyl)acetamide dihydrochloride] are 17, 3.8, 5 µM, 19 µM and 85 µM.
In the same order, the values of `Cc1cc(N)nc(C[C@H]2CNC[C@@H]2OCCN)c1.Cl.Cl.Cl` (racemic) [Compound P-81] are 0.3, 1.7, 5 µM, 8.5 µM and 1.5 µM.

The record behind these values is patent US7994326B2 (Northwestern University, priority 2003, dated 2011).
